The text below walks through data of paper PMC8143618, “Biochemical profiling of anti-HIV prodrug Elsulfavirine (Elpida®) and its active form VM1500A against a panel of twelve human carbonic anhydrase isoforms” (Journal of Enzyme Inhibition and Medicinal Chemistry, 2021).

For data set [1], the target named is hCA XII (Homo sapiens, UniProt O43570). Description: Stopped flow CO2 hydrase assay, hCA XII.
Description: (§1) An Applied Photophysics stopped-flow instrument has been used for assaying the CA-catalysed CO2 hydration activity[11]. […] The uncatalysed rates were determined in the same manner and subtracted from the total observed rates. Stock solutions of inhibitor (0.1 mM) were prepared in distilled-deionised water and dilutions up to 0.01 nM were done thereafter with the assay buffer. […] The inhibition constants were obtained by non-linear least-squares methods using PRISM 3 and the Cheng–Prusoff equation, as reported earlier[12]^,[13] and represent the mean from at least three different determinations.
The target in data set [2] is hCA IV (Homo sapiens, UniProt P22748). Description: Stopped flow CO2 hydrase assay, hCA IV.
Description: as §1
Data set [3] deals with hCA I (Homo sapiens, UniProt P00915). Description: Stopped flow CO2 hydrase assay, hCA I.
Description: as §1
Details of data set [4]: method as in PMID 28940154. The note with it: cited from earlier work.
In data set [5] the target is hCA XIII (Homo sapiens, UniProt Q8N1Q1). Description: Stopped flow CO2 hydrase assay, hCA XIII.
Description: as §1
In data set [6] the target is hCA XIV (Homo sapiens, UniProt Q9ULX7). Description: Stopped flow CO2 hydrase assay, hCA XIV.
Description: as §1
Data set [7] has as its target hCA VA (Homo sapiens, UniProt P35218). Description: Stopped flow CO2 hydrase assay, hCA VA.
Description: as §1
Data set [8] deals with hCA IX (Homo sapiens, UniProt Q16790). Description: Stopped flow CO2 hydrase assay, hCA IX.
Description: as §1
Data set [9] has as its target hCA VB (Homo sapiens, UniProt Q9Y2D0). Description: Stopped flow CO2 hydrase assay, hCA VB.
Description: as §1
For data set [10], the target named is hCA III (Homo sapiens, UniProt P07451). Description: Stopped flow CO2 hydrase assay, hCA III.
Description: as §1
Data set [11] deals with hCA II (Homo sapiens, UniProt P00918). Description: Stopped flow CO2 hydrase assay, hCA II.
Description: as §1
The target of data set [12] is hCA VII (Homo sapiens, UniProt P43166). Description: Stopped flow CO2 hydrase assay, hCA VII.
Description: as §1
Data set [13] deals with hCA VI (Homo sapiens, UniProt P23280). Description: Stopped flow CO2 hydrase assay, hCA VI.
Description: as §1
The subject of data set [14] is HIV. The following applies: compared to efavirenz, cited from earlier work.

For orientation: Ki means the dissociation constant of the complex between target and ligand, obtained from inhibition or displacement. A lower Ki goes with tighter binding.

Sequence of hCA III (P07451 whole entry): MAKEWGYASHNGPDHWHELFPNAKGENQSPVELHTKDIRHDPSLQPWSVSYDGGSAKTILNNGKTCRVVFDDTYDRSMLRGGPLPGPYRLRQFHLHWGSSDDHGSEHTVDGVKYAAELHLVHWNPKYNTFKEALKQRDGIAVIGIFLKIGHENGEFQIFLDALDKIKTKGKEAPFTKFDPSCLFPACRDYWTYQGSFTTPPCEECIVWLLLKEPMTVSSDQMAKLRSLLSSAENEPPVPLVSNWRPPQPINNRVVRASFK
Sequence of hCA IV (P22748 19-312): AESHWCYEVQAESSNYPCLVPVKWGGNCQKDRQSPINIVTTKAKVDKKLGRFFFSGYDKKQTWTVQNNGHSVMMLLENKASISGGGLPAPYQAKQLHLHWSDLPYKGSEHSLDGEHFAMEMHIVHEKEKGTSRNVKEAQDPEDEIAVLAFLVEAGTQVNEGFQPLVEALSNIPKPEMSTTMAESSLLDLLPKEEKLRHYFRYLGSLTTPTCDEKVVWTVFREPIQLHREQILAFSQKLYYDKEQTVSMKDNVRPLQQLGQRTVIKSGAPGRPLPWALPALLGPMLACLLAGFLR
Sequence of hCA VII (P43166 whole entry): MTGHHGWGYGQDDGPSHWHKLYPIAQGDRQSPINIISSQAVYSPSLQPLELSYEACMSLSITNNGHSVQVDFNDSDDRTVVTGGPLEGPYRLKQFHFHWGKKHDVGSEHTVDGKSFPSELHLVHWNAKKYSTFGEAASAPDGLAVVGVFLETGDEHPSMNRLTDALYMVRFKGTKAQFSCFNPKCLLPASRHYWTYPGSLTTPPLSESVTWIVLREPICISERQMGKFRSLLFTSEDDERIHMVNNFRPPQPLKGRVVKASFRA
Sequence of hCA I (P00915 whole entry): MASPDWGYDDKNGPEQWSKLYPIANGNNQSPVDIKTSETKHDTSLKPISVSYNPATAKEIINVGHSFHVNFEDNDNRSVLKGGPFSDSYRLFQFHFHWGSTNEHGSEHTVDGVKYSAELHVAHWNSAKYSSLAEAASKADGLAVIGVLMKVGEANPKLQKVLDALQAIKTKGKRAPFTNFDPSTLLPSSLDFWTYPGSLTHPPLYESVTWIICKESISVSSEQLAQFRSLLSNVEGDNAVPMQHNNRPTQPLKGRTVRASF
Sequence of hCA XIV (Q9ULX7 16-337): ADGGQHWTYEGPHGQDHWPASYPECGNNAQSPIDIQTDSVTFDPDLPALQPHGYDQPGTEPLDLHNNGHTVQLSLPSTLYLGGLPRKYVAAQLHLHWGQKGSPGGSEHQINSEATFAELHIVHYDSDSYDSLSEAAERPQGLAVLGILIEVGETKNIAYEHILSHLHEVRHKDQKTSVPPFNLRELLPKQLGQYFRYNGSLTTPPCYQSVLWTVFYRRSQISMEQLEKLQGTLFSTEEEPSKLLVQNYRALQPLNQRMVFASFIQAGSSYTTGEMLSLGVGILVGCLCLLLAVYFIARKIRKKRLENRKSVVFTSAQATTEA
Sequence of hCA XIII (Q8N1Q1 whole entry): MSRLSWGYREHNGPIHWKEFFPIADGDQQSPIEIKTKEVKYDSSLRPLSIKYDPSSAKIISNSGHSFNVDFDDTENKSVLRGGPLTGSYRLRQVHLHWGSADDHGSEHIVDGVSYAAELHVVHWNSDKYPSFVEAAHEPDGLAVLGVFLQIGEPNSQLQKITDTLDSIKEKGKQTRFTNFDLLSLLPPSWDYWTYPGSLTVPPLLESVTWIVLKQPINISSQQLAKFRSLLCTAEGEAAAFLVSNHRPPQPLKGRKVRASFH
Sequence of hCA VB (Q9Y2D0 34-317): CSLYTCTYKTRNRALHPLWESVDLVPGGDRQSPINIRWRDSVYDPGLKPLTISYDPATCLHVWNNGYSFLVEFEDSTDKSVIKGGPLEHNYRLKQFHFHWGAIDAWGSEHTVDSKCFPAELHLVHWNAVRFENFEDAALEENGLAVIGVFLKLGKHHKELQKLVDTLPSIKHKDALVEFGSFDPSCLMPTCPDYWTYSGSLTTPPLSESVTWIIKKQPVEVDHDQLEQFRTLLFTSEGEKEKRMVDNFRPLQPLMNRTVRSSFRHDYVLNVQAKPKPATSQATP
Sequence of hCA VA (P35218 39-305): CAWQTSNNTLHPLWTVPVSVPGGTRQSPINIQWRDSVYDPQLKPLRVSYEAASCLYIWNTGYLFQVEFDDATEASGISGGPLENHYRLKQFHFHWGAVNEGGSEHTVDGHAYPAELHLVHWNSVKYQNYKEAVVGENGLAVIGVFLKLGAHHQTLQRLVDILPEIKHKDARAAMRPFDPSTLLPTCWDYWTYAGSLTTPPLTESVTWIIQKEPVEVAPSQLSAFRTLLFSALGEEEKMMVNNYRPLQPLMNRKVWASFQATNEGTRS
Sequence of hCA VI (P23280 18-308): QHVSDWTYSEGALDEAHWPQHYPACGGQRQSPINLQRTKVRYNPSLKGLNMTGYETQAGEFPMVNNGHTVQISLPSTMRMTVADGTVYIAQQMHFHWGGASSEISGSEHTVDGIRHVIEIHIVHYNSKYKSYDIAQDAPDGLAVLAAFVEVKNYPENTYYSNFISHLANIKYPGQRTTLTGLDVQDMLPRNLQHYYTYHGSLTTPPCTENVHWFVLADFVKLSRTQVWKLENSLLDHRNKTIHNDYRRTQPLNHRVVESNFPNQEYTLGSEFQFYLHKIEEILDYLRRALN
Sequence of hCA XII (O43570 25-354): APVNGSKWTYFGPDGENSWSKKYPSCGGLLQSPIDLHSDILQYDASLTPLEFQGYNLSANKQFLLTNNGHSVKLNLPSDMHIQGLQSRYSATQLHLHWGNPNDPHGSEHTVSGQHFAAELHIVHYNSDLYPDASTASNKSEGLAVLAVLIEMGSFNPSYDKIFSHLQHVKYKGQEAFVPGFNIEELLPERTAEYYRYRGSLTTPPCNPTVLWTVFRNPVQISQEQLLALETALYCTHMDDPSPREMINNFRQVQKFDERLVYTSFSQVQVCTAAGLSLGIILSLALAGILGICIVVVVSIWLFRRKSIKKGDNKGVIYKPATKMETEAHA

In the case of `N#Cc1cc(Cl)cc(Oc2c(Br)ccc(CC(=O)Nc3ccc(S(N)(=O)=O)cc3Cl)c2F)c1` [VM1500A], the Ki was 62.3 nM in data set [1]; 158 nM in data set [2]; 514 nM in [3]; 52.2 nM in data set [5]; 15.4 nM in data set [6]; 537 nM in data set [7]. Further, the Ki is 72.1 nM in data set [8]; 221 nM in data set [9]; more than 100000 nM in data set [10]; 35.5 nM in data set [11]; 9.7 nM in data set [12]; 125 nM in data set [13]. For the same compound, in data set [4] (elimination of active form), the t1/2 of elimination was more than 120 h. In [12] (from Ki values), the “selectivity towards hCA VII over the majority of other hCA isoforms” value is 1–2 orders of magnitude.
Take `CCC(=O)NS(=O)(=O)c1ccc(NC(=O)Cc2ccc(Br)c(Oc3cc(Cl)cc(C#N)c3)c2F)c(Cl)c1` [elsulfavirine]: the Ki in data set [2] is more than 100000 nM; in data set [3] it was 52400 nM; in data set [5], 4820 nM; in data set [6], 1960 nM; in data set [7] it was 4290 nM; in data set [8], 6650 nM. In addition, the Ki in data set [9] was 14200 nM; in data set [10], more than 100000 nM; in [11] it was 12500 nM; in data set [12] it was 2390 nM; in [13] it was 5670 nM. In data set [2] (stopped flow CO2 hydrase assay), the “inhibition of hCA IV (in words)” value was “virtually no inhibition”. For the same compound, the “tolerability and side effects” value in data set [14] (patients) is “superior tolerability and fewer side effects”. For the same compound, the “virologic response (viral load and HIV RNA reduction)” value in data set [14] (treatment-naive patients) is on record as “comparable to that of the patients treated with efavirenz”. For the same compound, the “t1/2 of conversion to VM1500A” value in data set [4] (conversion of prodrug to active form) is on record as approximately 2 h. The “inhibition of hCA III (in words)” value in data set [10] (stopped flow CO2 hydrase assay) was “virtually no inhibition”.
